# Data as given in patent US20100209542A1, “Methods For Treating Withdrawal From Addictive Compounds” (priority 2008, published 2010).
# What was measured:
# [1] = tested on: morphine withdrawal symptoms; assay: naloxone-precipitated morphine withdrawal symptoms after replacement with compound; format: in vivo, mice; details: for Jumping Frequency / Last Day % Weight Control / Locomotor Activity / Paw Tremor Frequency / Teeth Chattering Frequency / Wet Dog Shakes Frequency: + 10 mg/kg naloxone i.p.
# Procedure: (§1) In this experiment mice were chronically administered either morphine using an increasing dose paradigm starting at 20 mg/kg and ending at 100 mg/kg (i.p.) or a saline vehicle control for six days. […] Morphine withdrawal symptoms were initiated by the injection of naloxone (10 mg/kg; i.p.). Kratom extract and mitragyine reduced naloxone-precipitated morphine withdrawal symptoms in a similar manner as methadone.
# withdrawal symptoms = assay: compound followed by naloxone administration (control values); format: in vivo, mice
# Procedure: as §1
# opioid receptors = details: guinea pig ileum, compared with morphine; cited from earlier work
# mice = details: cited from earlier work
# Adrenergic (Alpha 2) = assay: high throughput radioligand binding screen, Adrenergic (Alpha 2)
# Serotonin, 5HT7 = molecular target: T1, Serotonin, 5HT7 (Homo sapiens, UniProt P34969); assay: high throughput radioligand binding screen, Serotonin 5HT7
# T1 construct: Novascreen Biosciences Corp
# T1 sequence (P34969 whole entry): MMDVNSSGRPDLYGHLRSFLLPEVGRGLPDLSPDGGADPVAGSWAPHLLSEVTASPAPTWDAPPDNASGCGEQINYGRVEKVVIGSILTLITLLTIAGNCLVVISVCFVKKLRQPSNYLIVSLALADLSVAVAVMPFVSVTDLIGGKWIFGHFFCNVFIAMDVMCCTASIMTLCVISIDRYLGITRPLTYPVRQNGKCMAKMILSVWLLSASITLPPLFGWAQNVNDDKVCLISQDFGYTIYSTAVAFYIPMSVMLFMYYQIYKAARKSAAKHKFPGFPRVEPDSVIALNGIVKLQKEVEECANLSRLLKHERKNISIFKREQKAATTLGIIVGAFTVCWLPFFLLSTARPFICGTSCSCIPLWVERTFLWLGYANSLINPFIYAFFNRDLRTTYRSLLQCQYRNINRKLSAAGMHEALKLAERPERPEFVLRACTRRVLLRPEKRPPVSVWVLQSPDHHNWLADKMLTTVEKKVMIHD
# respiratory depression = details: rat, even at doses of 800 mg/kg, intraperitoneal; cited from earlier work
# [2] = animal studies; cited from earlier work
# Serotonin, 5HT2C = molecular target: T2, Serotonin, 5HT2C (Homo sapiens, UniProt P28335); assay: high throughput radioligand binding screen, Serotonin 5HT2C
# T2 construct: Novascreen Biosciences Corp
# T2 sequence (P28335 33-458): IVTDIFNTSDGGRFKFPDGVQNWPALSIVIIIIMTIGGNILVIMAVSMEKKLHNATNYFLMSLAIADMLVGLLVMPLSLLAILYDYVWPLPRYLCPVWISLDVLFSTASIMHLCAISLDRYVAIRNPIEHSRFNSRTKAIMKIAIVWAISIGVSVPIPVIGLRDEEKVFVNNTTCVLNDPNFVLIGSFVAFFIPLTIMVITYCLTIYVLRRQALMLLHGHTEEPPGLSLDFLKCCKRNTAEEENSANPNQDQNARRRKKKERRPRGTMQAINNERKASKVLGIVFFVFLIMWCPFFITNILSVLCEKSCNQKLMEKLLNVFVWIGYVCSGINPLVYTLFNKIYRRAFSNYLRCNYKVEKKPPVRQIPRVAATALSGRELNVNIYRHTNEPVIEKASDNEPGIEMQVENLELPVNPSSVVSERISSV
# Dopamine D2 = molecular target: T3, Dopamine D2 (Homo sapiens, UniProt P14416); assay: high throughput radioligand binding screen, Dopamine D2
# T3 construct: Novascreen Biosciences Corp
# T3 sequence (P14416 whole entry): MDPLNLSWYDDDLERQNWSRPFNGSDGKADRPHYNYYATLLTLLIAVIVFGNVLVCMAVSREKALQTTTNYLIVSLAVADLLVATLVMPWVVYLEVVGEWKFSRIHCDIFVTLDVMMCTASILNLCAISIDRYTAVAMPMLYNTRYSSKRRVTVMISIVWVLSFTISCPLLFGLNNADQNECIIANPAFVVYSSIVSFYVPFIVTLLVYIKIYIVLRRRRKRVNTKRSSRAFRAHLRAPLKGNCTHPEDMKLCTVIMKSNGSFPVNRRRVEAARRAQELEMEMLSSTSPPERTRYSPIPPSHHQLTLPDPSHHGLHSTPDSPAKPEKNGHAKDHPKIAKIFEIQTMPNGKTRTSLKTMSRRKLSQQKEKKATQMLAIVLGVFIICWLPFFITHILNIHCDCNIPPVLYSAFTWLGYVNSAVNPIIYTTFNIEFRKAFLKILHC
# [3] = mitragynine sample stability in validation of the detection method; details: short-term (4 h at room temperature), freeze-thaw (3 cycles), post-processing (16 h at 12° C.); any concentration tested
# Source text: The coefficient of variation and relative error values at the three concentrations were obtained in the intra- and inter-day assays. See, FIG. 3.
# Adenosine A2A = molecular target: T4, Adenosine A2A (Homo sapiens, UniProt P29274); assay: high throughput radioligand binding screen, Adenosine A2A
# T4 construct: Novascreen Biosciences Corp
# T4 sequence (P29274 whole entry): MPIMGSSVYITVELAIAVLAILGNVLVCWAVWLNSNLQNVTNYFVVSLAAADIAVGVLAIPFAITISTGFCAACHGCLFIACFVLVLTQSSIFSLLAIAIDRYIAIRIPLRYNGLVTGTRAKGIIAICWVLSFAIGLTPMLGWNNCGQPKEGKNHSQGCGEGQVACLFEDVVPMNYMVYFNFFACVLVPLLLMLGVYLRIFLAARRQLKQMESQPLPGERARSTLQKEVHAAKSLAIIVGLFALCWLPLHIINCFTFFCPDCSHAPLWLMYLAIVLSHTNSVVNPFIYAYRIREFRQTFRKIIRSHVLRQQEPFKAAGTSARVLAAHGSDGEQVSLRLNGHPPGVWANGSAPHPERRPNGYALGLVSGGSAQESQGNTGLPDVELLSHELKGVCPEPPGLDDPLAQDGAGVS
# delta-opioid receptor = molecular target: T5, delta-opioid receptor (Cavia porcellus, UniProt A0A286XTF2); details: guinea pig brain membranes; cited from earlier work
# T5 construct: determined using guinea pig brain membranes; from tissue; host or cells: guinea pig brain membranes
# T5 sequence (A0A286XTF2 1-366): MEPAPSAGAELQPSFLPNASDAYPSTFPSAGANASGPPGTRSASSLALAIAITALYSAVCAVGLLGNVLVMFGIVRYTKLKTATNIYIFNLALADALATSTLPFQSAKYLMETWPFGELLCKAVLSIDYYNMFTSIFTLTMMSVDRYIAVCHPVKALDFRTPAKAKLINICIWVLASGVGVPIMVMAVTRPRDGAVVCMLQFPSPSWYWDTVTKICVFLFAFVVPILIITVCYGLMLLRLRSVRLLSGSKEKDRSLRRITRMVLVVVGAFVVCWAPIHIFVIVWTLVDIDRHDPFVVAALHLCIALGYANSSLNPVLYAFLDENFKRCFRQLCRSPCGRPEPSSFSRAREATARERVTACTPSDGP
# [4] = morphine 20-100 mg/kg i.p. control, no replacement compound
# [5] = morphine i.p. + 10 mg/kg naloxone i.p.
# [6] = naloxone i.p. group, no morphine
# [7] = morphine 20-100 mg/kg i.p., then compound 23 mg/kg p.o.
# [8] = no morphine, compound 23 mg/kg p.o. + 10 mg/kg naloxone i.p.
# [9] = morphine 20-100 mg/kg i.p., then compound 100 mg/kg p.o.
# [10] = no morphine, compound 100 mg/kg p.o. + 10 mg/kg naloxone i.p.
compound,measurement,setting,value
"CN1CC[C@]23c4c5ccc(O)c4O[C@H]2[C@@H](O)C=C[C@H]3[C@H]1C5 [Morphine, morphine]",Jumping Frequency,[1]; [4],21.6 ± 4.378
same,Last Day % Weight Control,[1]; [4],89.64 ± 0.6012 %
same,Locomotor Activity,[1]; [4],1870 ± 114.2
same,Paw Tremor Frequency,[1]; [4],156.2 ± 7.124
same,Teeth Chattering Frequency,[1]; [4],76.10 ± 6.572
same,Wet Dog Shakes Frequency,[1]; [4],9.433 ± 1.334
same,Jumping Frequency,withdrawal symptoms; [5],21.6 ± 4.378
same,Last Day % Weight Control,withdrawal symptoms; [5],89.64 ± 0.6012 %
same,Locomotor Activity,withdrawal symptoms; [5],1870 ± 114.2
same,Paw Tremor Frequency,withdrawal symptoms; [5],156.2 ± 7.124
same,Teeth Chattering Frequency,withdrawal symptoms; [5],76.10 ± 6.572
same,Wet Dog Shakes Frequency,withdrawal symptoms; [5],9.433 ± 1.334
CC[C@@H]1CN2CC[C@@]3(O)C(=Nc4cccc(OC)c43)[C@@H]2C[C@@H]1/C(=C\OC)C(=O)OC [7-hydroxymitragynine],opioid agonist potency,opioid receptors,higher potency than morphine
same,antinociceptive activity,mice,potent antinociceptive activity
CC[C@@H]1CN2CC[C@]3(Nc4cccc(OC)c4C3=O)[C@@H]2C[C@@H]1/C(=C\OC)C(=O)OC [mitragynine pseudoindoxyl],opioid agonist potency,opioid receptors,higher potency than morphine
"C=CCN1CC[C@]23c4c5ccc(O)c4O[C@H]2C(=O)CC[C@@]3(O)[C@H]1C5 [Naloxone, naloxone]",Jumping Frequency,withdrawal symptoms; [6],1.800 ± 0.9978
same,Last Day % Weight Control,withdrawal symptoms; [6],99.94 ± 1.225 %
same,Locomotor Activity,withdrawal symptoms; [6],3291 ± 145.3
same,Paw Tremor Frequency,withdrawal symptoms; [6],3.800 ± 0.9978
same,Teeth Chattering Frequency,withdrawal symptoms; [6],0.00 ± 0.00
same,Wet Dog Shakes Frequency,withdrawal symptoms; [6],0.6000 ± 0.3399
CC[C@@H]1CN2CCc3c([nH]c4cccc(OC)c34)[C@@H]2C[C@@H]1/C(=C\OC)C(=O)OC [mitragynine],Percentage inhibition of radioligand binding,Adrenergic (Alpha 2),Adrenergic (Alpha 2): 61.92
same,Percentage inhibition of radioligand binding,"Serotonin, 5HT7","Serotonin, 5HT7: 64.41"
same,respiratory depression,respiratory depression,failed to identify respiratory depression
same,analgesic and antitussive properties,[2],comparable to codeine
same,opioid withdrawal syndrome,[2],suppressed
same,respiratory depression compared with codeine,[2],much less respiratory depression
same,Percentage inhibition of radioligand binding,"Serotonin, 5HT2C","Serotonin, 5HT2C: 58.77"
same,Percentage inhibition of radioligand binding,Dopamine D2,Dopamine D2: 54.22
same,naloxone-precipitated morphine withdrawal symptoms,"[1]; mice, p.o. for six days after morphine, in a similar manner as methadone",reduced
same,Jumping Frequency,[1]; [7],0.00 ± 0.00
same,Last Day % Weight Control,[1]; [7],101.3 ± 0.8619 %
same,Locomotor Activity,[1]; [7],2485 ± 119.1
same,Paw Tremor Frequency,[1]; [7],3.200 ± 0.7424
same,Teeth Chattering Frequency,[1]; [7],0.00 ± 0.00
same,Wet Dog Shakes Frequency,[1]; [7],0.6000 ± 0.2667
same,"sample stability, variation",[3],≤ 15%
same,Percentage inhibition of radioligand binding,Adenosine A2A,Adenosine A2A: 65.66
same,pKi,delta-opioid receptor,7.22±0.21
same,Jumping Frequency,withdrawal symptoms; [8],0.00 ± 0.00
same,Last Day % Weight Control,withdrawal symptoms; [8],98.85 ± 0.8938 %
same,Locomotor Activity,withdrawal symptoms; [8],3010 ± 108.1
same,Paw Tremor Frequency,withdrawal symptoms; [8],1.800 ± 0.6464
same,Teeth Chattering Frequency,withdrawal symptoms; [8],0.00 ± 0.00
same,Wet Dog Shakes Frequency,withdrawal symptoms; [8],0.00 ± 0.00
"CCC(=O)C(CC(C)N(C)C)(c1ccccc1)c1ccccc1 (centres unmarked) [Methadone, methadone]",Jumping Frequency,[1]; [7],0.00 ± 0.00
same,Last Day % Weight Control,[1]; [7],100.1 ± 0.8121 %
same,Locomotor Activity,[1]; [7],1866 ± 225.9
same,Paw Tremor Frequency,[1]; [7],110.7 ± 8.809
same,Teeth Chattering Frequency,[1]; [7],81.20 ± 8.704
same,Wet Dog Shakes Frequency,[1]; [7],5.600 ± 0.9684
same,Jumping Frequency,[1]; [9],1.111 ± 0.7536
same,Last Day % Weight Control,[1]; [9],100.1 ± 1.205 %
same,Locomotor Activity,[1]; [9],2512 ± 131.5
same,Paw Tremor Frequency,[1]; [9],8.444 ± 1.692
same,Teeth Chattering Frequency,[1]; [9],0.00 ± 0.00
same,Wet Dog Shakes Frequency,[1]; [9],0.6667 ± 0.3333
same,Jumping Frequency,withdrawal symptoms; [8],0.00 ± 0.00
same,Last Day % Weight Control,withdrawal symptoms; [8],96.64 ± 1.046 %
same,Locomotor Activity,withdrawal symptoms; [8],2595 ± 288.4
same,Paw Tremor Frequency,withdrawal symptoms; [8],6.400 ± 1.462
same,Teeth Chattering Frequency,withdrawal symptoms; [8],0.00 ± 0.00
same,Wet Dog Shakes Frequency,withdrawal symptoms; [8],2.000 ± 0.5164
same,Jumping Frequency,withdrawal symptoms; [10],0.00 ± 0.00
same,Last Day % Weight Control,withdrawal symptoms; [10],98.30 ± 0.6976 %
same,Paw Tremor Frequency,withdrawal symptoms; [10],5.000 ± 1.549
same,Teeth Chattering Frequency,withdrawal symptoms; [10],0.00 ± 0.00
same,Wet Dog Shakes Frequency,withdrawal symptoms; [10],1.900 ± 0.5859
